Results published in the NIST ThermoML archive (doi:10.1016/j.fluid.2005.12.016).
Numbers after ± are expanded uncertainties. Values belong to the compound of their own block, whether it stands above or below them.

Test: osmotic coefficient (dimensionless); mn = molality of the nth substance listed, in mol/kg
Conditions: 298.15 K, 101 kPa, Liquid, isopiestic method

SMILES: OCCC(O)CO (stereo not given) [1,2,4-butanetriol] + O
osmotic coefficient (m1 = 0.7526): 0.9857 ± 0.0011
osmotic coefficient (m1 = 1.34): 0.9912 ± 0.001
osmotic coefficient (m1 = 1.929): 0.9968 ± 0.001
osmotic coefficient (m1 = 2.745): 1.0059 ± 0.001
osmotic coefficient (m1 = 2.8): 1.0065 ± 0.001
osmotic coefficient (m1 = 3.691): 1.019 ± 0.0012
osmotic coefficient (m1 = 5.916): 1.062 ± 0.0024

SMILES: CC(O)CCO (stereo not given) [1,3-butanediol] + O
osmotic coefficient (m1 = 0.2289): 0.9766 ± 0.0013
osmotic coefficient (m1 = 0.7849): 0.9509 ± 0.002
osmotic coefficient (m1 = 1.051): 0.9416 ± 0.0023
osmotic coefficient (m1 = 2.968): 0.9042 ± 0.0037
osmotic coefficient (m1 = 2.969): 0.9042 ± 0.0037
osmotic coefficient (m1 = 4.186): 0.8953 ± 0.0041
osmotic coefficient (m1 = 4.197): 0.8953 ± 0.0041

SMILES: OCCCCO [1,4-butanediol] + O
osmotic coefficient (m1 = 0.2252): 0.977 ± 0.0013
osmotic coefficient (m1 = 0.778): 0.9474 ± 0.0021
osmotic coefficient (m1 = 0.7931): 0.9467 ± 0.0021
osmotic coefficient (m1 = 1.054): 0.9349 ± 0.0025
osmotic coefficient (m1 = 2.148): 0.892 ± 0.0042
osmotic coefficient (m1 = 2.158): 0.8916 ± 0.0042
osmotic coefficient (m1 = 3.12): 0.8619 ± 0.0053
osmotic coefficient (m1 = 4.499): 0.8341 ± 0.0064
osmotic coefficient (m1 = 4.501): 0.8341 ± 0.0064

More lines, now with the values ahead:

osmotic coefficient (m1 = 0.2302): 0.9585 ± 0.0018
osmotic coefficient (m1 = 0.803): 0.9286 ± 0.0028
osmotic coefficient (m1 = 0.8128): 0.9282 ± 0.0028
osmotic coefficient (m1 = 1.046): 0.9205 ± 0.0031
osmotic coefficient (m1 = 1.056): 0.9202 ± 0.0031
osmotic coefficient (m1 = 2.093): 0.8967 ± 0.004
osmotic coefficient (m1 = 3.038): 0.8831 ± 0.0045
osmotic coefficient (m1 = 3.044): 0.8831 ± 0.0045
osmotic coefficient (m1 = 4.304): 0.8709 ± 0.005
SMILES: CCC(O)CO (stereo not given) [1,2-butanediol] + O

osmotic coefficient (m1 = 0.6071): 0.9429 ± 0.0023
osmotic coefficient (m1 = 0.8087): 0.9359 ± 0.0025
osmotic coefficient (m1 = 1.995): 0.913 ± 0.0034
osmotic coefficient (m1 = 2.96): 0.9043 ± 0.0037
SMILES: CC(O)C(C)O (stereo not given) [2,3-butanediol] + O

osmotic coefficient (m1 = 0.2173): 1.0019 ± 0.001
osmotic coefficient (m1 = 0.2196): 1.0019 ± 0.001
osmotic coefficient (m1 = 0.5657): 1.011 ± 0.0011
osmotic coefficient (m1 = 0.5662): 1.011 ± 0.0011
osmotic coefficient (m1 = 0.7365): 1.014 ± 0.0011
osmotic coefficient (m1 = 0.74): 1.014 ± 0.0011
osmotic coefficient (m1 = 0.9458): 1.017 ± 0.0012
osmotic coefficient (m1 = 1.113): 1.019 ± 0.0012
osmotic coefficient (m1 = 1.114): 1.019 ± 0.0012
SMILES: OC[C@@H](O)[C@@H](O)CO [meso-1,2,3,4-butanetetrol] + O
